From patent publication US6838465B2, “N-acyltetrahydroisoquinoline derivatives” (Banyu Pharmaceutical Co., Ltd., priority 2000, dated 2005)

Assays:
human OX1 receptor = biological target: T1, human OX1 receptor (Homo sapiens, UniProt O43613); assay: Inhibition of orexin A-induced increase in intracellular calcium concentration (FLIPR), OX1 receptor expressing CHO-K1 cells; assay type: cell-based; conditions: CHO-K1 cells stably expressing human OX1 receptor; 0.3 nM orexin A; compound added 5 minutes before; fluo-3 AM; read-out: 50% Inhibition concentration, OX1 receptor
T1 construct: expressed in transfected cells
T1 sequence (O43613 1-425): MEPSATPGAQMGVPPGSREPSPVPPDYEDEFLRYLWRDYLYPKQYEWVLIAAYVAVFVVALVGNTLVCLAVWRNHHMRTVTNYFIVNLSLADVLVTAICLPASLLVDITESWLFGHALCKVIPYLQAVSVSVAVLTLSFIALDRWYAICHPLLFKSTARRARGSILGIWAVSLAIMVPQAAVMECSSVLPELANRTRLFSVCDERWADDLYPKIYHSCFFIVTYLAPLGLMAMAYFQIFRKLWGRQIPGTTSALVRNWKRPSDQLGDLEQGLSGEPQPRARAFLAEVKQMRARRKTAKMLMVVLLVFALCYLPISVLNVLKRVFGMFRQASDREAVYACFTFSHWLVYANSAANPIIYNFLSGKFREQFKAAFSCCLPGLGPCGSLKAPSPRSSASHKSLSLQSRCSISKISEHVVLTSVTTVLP
Source text: (§1) A cDNA sequence encoding human orexin OX1 receptor or OX2 receptor (see GenBank, accession number AF 041243 and AF 041245) was cloned into the EcoRV-EcoRI site of a mamal expressed plasmid vector pIRESIneo (made by Clontech Laboratories, Inc.) and the PmlI-XbaI site of a mamal expressed plasmid vector pEF/myc/cyto (made by Invitrogen Corp.). The resulting vectors were respectively transfected into Chinese hamster's ovarian cells CHO-K1 (Americam Type Culture Collection, ATCC number CCL-61). Then, cells having resistance to 2 mg/ml of Geneticin (G418, made by Life Technologies, Inc.) were selected to obtain a cell line stably expressing a human OX1 receptor and a cell line stably expressing a human OX2 receptor. The OX1 receptor or OX2 receptor stably expressing cells were made to take up fluo-3, AM (made by Molecualr Probes Inc.), a fluorescent indicator of calcium concentration, and then 0.3 nM of orexin A was added to a suspension of the cells in an assay buffer (Hank's […] salt solution adjusted to pH 7.4 and containing 20 mM HEPES, 0.5% bovine serum albumin and 2.5 mM probenecid), and the change of the intracellular calcium concentration was measured with time lapse using FLIPR (Fluorometric Imaging Plate Reader, made by Molecular Devices Corp.). The effect of a test compound influencing the increase in the intracellular calcium concentration was assayed by adding the test compound in various concentrations to the assay solutions, 5 minutes before the addition of orexin A, and the 50% inhibition concentration (IC50 value) of the test compound against the increase in intracellular calcium concentration caused by the addition of 0.3 nM orexin A was determined (Table 1).

human OX2 receptor = biological target: T2, human OX2 receptor (Homo sapiens, UniProt O43614); assay: Inhibition of orexin A-induced increase in intracellular calcium concentration (FLIPR), OX2 receptor expressing CHO-K1 cells; assay type: cell-based; conditions: CHO-K1 cells stably expressing human OX2 receptor; 0.3 nM orexin A; compound added 5 minutes before; fluo-3 AM; read-out: 50% Inhibition concentration, OX2 receptor
T2 construct: expressed in transfected cells
T2 sequence (O43614 1-444): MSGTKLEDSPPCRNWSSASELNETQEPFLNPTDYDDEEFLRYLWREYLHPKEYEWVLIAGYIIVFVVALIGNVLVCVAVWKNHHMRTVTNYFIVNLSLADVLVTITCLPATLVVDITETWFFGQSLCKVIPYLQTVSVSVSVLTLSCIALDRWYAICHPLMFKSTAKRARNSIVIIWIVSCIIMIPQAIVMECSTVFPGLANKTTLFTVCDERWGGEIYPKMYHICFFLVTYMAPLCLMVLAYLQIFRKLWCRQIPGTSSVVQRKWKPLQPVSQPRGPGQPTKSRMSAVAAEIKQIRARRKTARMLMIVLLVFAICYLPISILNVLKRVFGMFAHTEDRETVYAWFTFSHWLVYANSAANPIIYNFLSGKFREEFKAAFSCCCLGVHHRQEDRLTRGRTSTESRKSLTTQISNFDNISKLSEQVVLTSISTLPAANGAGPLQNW
Source text: as §1

| SMILES | IC50 (human OX1 receptor) | IC50 (human OX2 receptor) |
| --- | --- | --- |
| COc1cc2c(cc1OC)CN(C(=O)C(Cc1ccccc1)NC(=O)c1cc(Cl)cc(Cl)c1)CC2 (centres unmarked) [Example 4, N-[2-(6,7-dimethoxy-1,2,3,4-tetrahydroisoquinolin-2-yl)-2-oxo-1-benzylethyl](3,5-dichlorophenyl)carboxyamide] | 5300 nM | 31 nM |
| COc1cc2c(cc1OC)CN(C(=O)[C@@H](NCc1ccncc1)C(C)(C)C)CC2 [Example 6, (2S)-2-(N-4-pyridylmethyl)amino-1-(6,7-dimethoxy-1,2,3,4-tetrahydroisoquinolin-2yl)-3,3-dimethylbutan-1-one] | 24000 nM | 110 nM |
| COc1cc2c(cc1OC)CN(C(=O)[C@@H](NCc1nccs1)C(C)(C)C)CC2 [Example 8, (2S)-1-(6,7-dimethoxy-1,2,3,4-tetrahydroisoquinolin-2-yl)-3,3-dimethyl-2-((2-thiazolylmethyl)amino)butan-1-one] | 17000 nM | 49 nM |
| COc1cc2c(cc1OC)CN(C(=O)[C@@H](NCc1cccc(Br)c1)C(C)(C)C)CC2 [Example 23, (2S)-2-(3-bromobenzylamino)-1-(6,7-dimethoxy-1,2,3,4-tetrahydroisoquinolin-2-yl)-3,3-dimethylbutan-1-one] | 4400 nM | 140 nM |
